US5714469A, “Method of treating sepsis” (priority 1994, dated 1998)

System: clinical isolate of E. coli isolated from sputum
Experiment: Antibiotic sensitivity by disc-agar diffusion technique
Assay type: cell-based
Experimental: A clinical isolate of E. coli isolated from sputum was utilized. […] The organism was animal passed in mice and subsequently recovered and plated onto MacConkey's agar. The reisolated organisms were grown overnight in brain-heart infusion broth, and then stored frozen at -70° C. The inoculate the fibrin clot, organisms from thawed stocks were inoculated into brainheart infusion broth and incubated overnight on a rotary shaker (120 rpm) an 37° C. The E. coli was harvested by centrifugation, washed 3X and finally resuspended in normal saline. The number or organisms was quantified by turbidimentry, and the concentration adjusted with normal saline. All inoculum sizes were based on viable counts determined by scoring colony forming units on MacConkeys agar.

Compound	antibiotic sensitivity of the E. coli isolate
CC[C@H]1OC(=O)[C@H](C)[C@@H](O[C@H]2C[C@@](C)(OC)[C@@H](O)[C@H](C)O2)[C@H](C)[C@@H](O[C@@H]2O[C@H](C)C[C@H](N(C)C)[C@H]2O)[C@](C)(O)C[C@@H](C)C(=O)[C@H](C)[C@@H](O)[C@]1(C)O [erythromycin]	resistant
CN(C)[C@@H]1C(O)=C(C(N)=O)C(=O)[C@@]2(O)C(O)=C3C(=O)c4c(O)cccc4[C@@](C)(O)[C@H]3C[C@@H]12 [tetracycline]	sensitive
O=C(N[C@H](CO)[C@H](O)c1ccc([N+](=O)[O-])cc1)C(Cl)Cl [chloramphenicol]	sensitive
CC1(C)S[C@@H]2[C@H](NC(=O)[C@H](N)c3ccccc3)C(=O)N2[C@H]1C(=O)O [ampicillin]	sensitive
gentamicin	sensitive
CN[C@H](CC(C)C)C(=O)N[C@H]1C(=O)N[C@@H](CC(N)=O)C(=O)N[C@H]2C(=O)N[C@H]3C(=O)N[C@H](C(=O)N[C@H](C(=O)O)c4cc(O)cc(O)c4-c4cc3ccc4O)[C@H](O)c3ccc(c(Cl)c3)Oc3cc2cc(c3O[C@@H]2O[C@H](CO)[C@@H](O)[C@H](O)[C@H]2O[C@H]2C[C@](C)(N)[C@H](O)[C@H](C)O2)Oc2ccc(cc2Cl)[C@H]1O [vancomycin]	resistant
NC[C@H]1O[C@H](O[C@H]2[C@H](O)[C@@H](O[C@H]3O[C@H](CO)[C@@H](O)[C@H](N)[C@H]3O)[C@H](N)C[C@@H]2N)[C@H](O)[C@@H](O)[C@@H]1O [kanamycin]	sensitive
CC1(C)S[C@@H]2[C@H](NC(=O)Cc3ccccc3)C(=O)N2[C@H]1C(=O)O [penicillin G]	resistant
CC(=O)OCC1=C(C(=O)O)N2C(=O)[C@@H](NC(=O)Cc3cccs3)[C@H]2SC1 [cephalothin]	sensitive
trimethoprin/sulfamethoxazole	sensitive
